# US6204284A, “Use of 1-(substitutedphenyl)-3-azabicyclo[3.1.0]hexanes for the treatment of chemical dependencies” (priority 1995, dated 2001)
# “Also recorded” adds a separate entry of the source.
# Key:
# [1] = system: Serotonin (5-HT) reuptake in rat brain synaptosomes; assay: Inhibition of rat synaptosomal uptake of 3H-serotonin; assay type: biochemical; conditions: rat diencephalic-mid brain crude synaptosomes; 3H-5HT 2×10^-8 M; Hill analysis
# Description: (§1) Male Wistar rats weighing approximately 180-200 g are decapitated and their brains rapidly removed and dissected according to the method of Glowinski and Iversen. Glowinski, J. and Iversen, L. L., Regional studies of catecholamines in the rat brain I. The disposition of 3H-norepinephrine, 3H-dopamine and 3H-DOPA in various regions of the brain. J. Neurochem. 13:655-669, 1966.
# (§2) Striatal tissues are pooled from three rat brains for the uptake of 3H-dopamine (3H-DA) and diencephalic-mid brain areas were used for the uptake of 3H-norepinephrine (3H-NE) and 3H-serotonin (3H-5HT). The tissues are immediately weighed and homogenized with a teflon-glass pestle homogenizer in 10 volumes of ice cold 0.32 M sucrose. The homogenates are centrifuged at 4° C. at 900×g for 10 minutes to remove nuclear particles and cellular debris. The supernatants are carefully withdrawn and transferred into clean test tubes kept in ice. Aliquots of these preparations containing crude synaptic nerve endings are used in subsequent uptake studies.
# (§3) Amine uptake in crude synaptosomes is determined by a method essentially the same as that described by Snyder and Coyle, Snyder, S. H. and Coyle, J. T. Regional differences in 3H-norepinephrine and 3H-dopamine uptake into rat brain homogenates. J. Pharmacol. Exp. Ther. 165:78-86, 1969. Briefly, a 0.1 ml aliquot of the above tissue preparation is added to test tubes containing 3.7 ml of Krebs-Ringer phosphate buffer pH 7.4 with glucose (2 mg/ml), calcium chloride 0.024%, ascorbic acid (0.2 mg/ml) and nialamide (1.24×10^-5M). 1-(3,4-Dichlorophenyl)-3-azabicyclo[3.1.0]hexane hydrochloride at varying concentrations (0.01-2.5 μM) is added in a 0.1 ml volume. The incubation mixtures are agitated at 37° C. for 10 minutes under an atmosphere of 95% oxygen and 5% CO2 in a Dubnoff metabolic shaker to ensure irreversible inhibition of monoamine oxidase (MAO). After this initial pre-incubation period, the tubes are returned to the ice bath. 3H-DA, 3H-NE or 3H-5HT is added in a 0.1 ml volume to give a final concentration of labeled amine of 2×10^-8 M, and the incubation at 37° C. is continued for an additional 4 min. A set of tubes serving as control (uptake at 0° C.) is left in an ice bath. After the final incubation period, the samples are cooled in ice and then centrifuged at 4° C. at 10,000×g. The supernatant fluid is gently poured off from each tube. The surface of the pellet of each sample is washed with 5 ml of ice cold 0.9% sodium chloride which is then aspirated off without disturbing the pellet. The pellet is resuspended in a cintillation fluid ad radioactivity was determined. Protein content in the tissue samples is determined by the method of Lowry et al. Lowry, O. H., Rosebrough, N. J., Farr, A. L. and Randall, R. J. Protein measurement with the folin reagent. J. Biol. Chem. 193:265, 1951. The concentration of drug which inhibits the uptake of the labeled amine by 50% is determined by Hill analysis of the data.
# [2] = system: Norepinephrine (NE) reuptake in rat brain synaptosomes; assay: Inhibition of rat synaptosomal uptake of 3H-norepinephrine; assay type: biochemical; conditions: rat diencephalic-mid brain crude synaptosomes; 3H-NE 2×10^-8 M; Hill analysis
# Description: as §1, §2, §3
# [3] = system: Dopamine (DA) reuptake in rat brain synaptosomes; assay: Inhibition of rat synaptosomal uptake of 3H-dopamine; assay type: biochemical; conditions: rat striatal crude synaptosomes; 3H-DA 2×10^-8 M; Hill analysis
# Description: as §1
# Striatal tissues are pooled from three rat brains for the uptake of 3H-dopamine (3H-DA) and diencephalic-mid brain areas were used for the uptake of 3H-norepinephrine (3H-NE) and 3H-serotonin (3H-5HT). The tissues are immediately weighed and homogenized with a teflon-glass pestle homogenizer in 10 volumes of ice cold 0.32 M sucrose. […]
# Amine uptake in crude synaptosomes is determined by a method essentially the same as that described by Snyder and Coyle, Snyder, S. H. and Coyle, J. T. Regional differences in 3H-norepinephrine and 3H-dopamine uptake into rat brain homogenates. […] The pellet is resuspended in a cintillation fluid ad radioactivity was determined. Protein content in the tissue samples is determined by the method of Lowry et al. Lowry, O. H., Rosebrough, N. J., Farr, A. L. and Randall, R. J. Protein measurement with the folin reagent. […] The concentration of drug which inhibits the uptake of the labeled amine by 50% is determined by Hill analysis of the data.
# Male Wistar rats [4] = assay: Free-choice ethanol (6% v/v) vs tap water drinking, Part I; assay type: in vivo, rat; conditions: 30 mg/kg i.p. 7 days, mean ± S.D.
# Experimental: (§4) Male Wistar rats are presented with an everyday free-choice between a 6% (v/v) ethanol solution and tap water. Following a seven-day baseline period, which establishes a pattern of stable drinking, only those animals whose consumption is greater than 50% of their total fluid intake are given intraperitoneal injections of three drugs. In part I citalopram (positive control) a neuronal serotonin uptake inhibitor at a dose of 30 mg/kg, […], and 1-(3,4-dichlorophenyl)-3-azabicyclo[3.1.0]hexane hydrochloride, also a serotonin uptake inhibitor, at doses of 5, 10 and 20 mg/kg are given by intraperitoneal injection for seven days. In part II, animals are given intraperitoneal injections of diazepam at a dose of 10 mg/kg and again the positive control used is citalopram at 30 mg/kg. Treatment period for part II also is over a seven-day period. Following the seven-day treatment period, a post-treatment period which lasted for an additional seven days is conducted where the animals are presented with a free choice between ethanol and water in order to determine the rate of recovery of ethanol drinking. During baseline, drug treatment and post-treatment periods, ethanol consumption by the rats is calculated in terms of daily ethanol preference ratio (volume of ethanol per volume of total daily fluid intake) and in terms of daily absolute of ethanol ingested (g/kg body weight).
# (§5) Two hundred (200) drug-naive male Wistar rats obtained from the Canadian Breeding Farm Laboratories in Charles River Canada are used. All animals weigh between 180-200 g at the beginning of the experiment.
# (§6) All animals are individually housed in stainless steel cages, in a room regulated for constant temperature, humidity and a 12-hour light/dark cycle (7:00 a.m.-7:00 p.m.). Each cage is equipped with two calibrated glass Richter tubes to deliver the fluids (ethanol and water) to the animals. All animals are presented with a free choice between ethanol and tap water throughout the experiment. The drinking vessels are randomly reversed in order to avoid bias generated by a position preference in the animals. In addition, Purina Rat Chow is made available throughout the experiment on an ad libitum basis.
# (§7) At approximately the same time every day, 1300 h, the volume in mls of ethanol and tap water consumed by each animal is recorded. All tubes are then removed from the cages, rinsed and refilled with the appropriate fluids, i.e., ethanol solution and tap water. Also, all animals are weighed and their corresponding body weights recorded. At this time, additional food is provided.
# (§8) Drugs used in part I are dissolved in Ringers solution to form the required doses. Drugs used in part II are suspended in a vehicle which consists of a 2% pre-boiled starch solution containing 5% polyethylene glycol 400 and tween 80 (1 drop/10 ml vehicle). All drugs are administered intraperitoneally according to the schedule (see Treatment period).
# Group 2--citalopram 30 mg/kg (n=10)
# Group 3--1-(3,4-dichlorophenyl)-3-azabicyclo[3.1.0]hexane hydrochloride 5 mg/kg (n=10)
# Group 4--1-(3,4-dichlorophenyl)-3-azabicyclo[3.1.0]hexane hydrochloride 10 mg/kg (n=10)
# Group 5--1-(3,4-dichlorophenyl)-3-azabicyclo[3.1.0]hexane hydrochloride 20 mg/kg (n=10)
# (§9) Post-treatment period:--Upon cessation of the drug treatment period, the animals are presented with a free choice between 6% ethanol and tap water for an additional 7 days in order to determine the rate of recovery of ethanol drinking.
# Male Wistar rats [5] = assay: Free-choice ethanol (6% v/v) vs tap water drinking, Part II; assay type: in vivo, rat; conditions: for Ethanol Intake / Food Consumption / Ethanol Preference / Total Fluid Intake: mean ± S.D.
# Experimental: as §4, §5, §6, §7, §8
# Group 2--citalopram 30 mg/kg (n=7)
# Group 3--diazepam 10 mg/kg (n=7)
# as §9
# [6] = Treatment period, listed as citalopram, 30 mg/kg
# [7] = 30 mg/kg i.p. 7 days, Baseline period
# [8] = 30 mg/kg i.p. 7 days, Baseline period, 30 mg/kg
# [9] = 30 mg/kg i.p. 7 days, Baseline period, listed as citalopram, 30 mg/kg
# [10] = 30 mg/kg i.p. 7 days, Post-Treatment period
# [11] = 30 mg/kg i.p. 7 days, Treatment period, 30 mg/kg
# [12] = 30 mg/kg i.p. 7 days, Treatment period, listed as citalopram, 30 mg/kg
# [13] = 10 mg/kg i.p. 7 days, Baseline period
# [14] = 10 mg/kg i.p. 7 days, Post-Treatment period
# [15] = 10 mg/kg i.p. 7 days, Treatment period, 10 mg/kg
# [16] = 10 mg/kg i.p. 7 days, Treatment period, listed as diazepam, 10 mg/kg
structure (smiles),measurement,setting,value
COc1ccc(C23CNCC2C3)cc1Br (racemic) [±H 3-Br-4-OCH3],IC50,[1],260 nM
same,IC50,[2],318 nM
c1ccc(C23CNCC2C3)cc1 (racemic) [±H H],IC50,[1],470 nM
same,IC50,[2],401 nM
Cc1ccc(C23CNCC2C3)cc1 (racemic) [±H p-CH3],IC50,[1],137 nM
same,IC50,[3],2360 nM
same,IC50,[2],741 nM
Clc1ccc(C23CNCC2C3)cc1 (racemic) [±H p-Cl],IC50,[1],169 nM
same,IC50,[2],274 nM
Fc1ccc(C23CNCC2C3)cc1 (racemic) [±H p-F],IC50,[1],811 nM
"Cc1ccc(C23CNCC2C3)cc1 (single isomer, unassigned) [+H p-CH3]",IC50,[1],96 nM
same,IC50,[2],215 nM
"Clc1ccc(C23CNCC2C3)cc1 (single isomer, unassigned) [+H p-Cl]",IC50,[1],55 nM
same,IC50,[2],279 nM
CN(C)CCCC1(c2ccc(F)cc2)OCc2cc(C#N)ccc21 (stereo not shown) [Citalopram],Ethanol Intake,Male Wistar rats [4]; Baseline period,4.49 ± 1.18 g/kg body weight
same,Ethanol Preference,Male Wistar rats [4]; Baseline period,75.78 ± 18.09%
same,Food Consumption,Male Wistar rats [4]; Baseline period,20.14 ± 1.71 g/day
same,Total Fluid Intake,Male Wistar rats [4]; Baseline period,5.1746 ± 0.5146 mL/h/kg
same,Ethanol Intake,Male Wistar rats [4]; Post-Treatment period,3.32 ± 1.86 g/kg body weight
same,Ethanol Preference,Male Wistar rats [4]; Post-Treatment period,57.81 ± 32.23%
same,Food Consumption,Male Wistar rats [4]; Post-Treatment period,21.47 ± 1.94 g/day
same,Total Fluid Intake,Male Wistar rats [4]; Post-Treatment period,5.0612 ± 0.6242 mL/h/kg
same,Ethanol Intake,Male Wistar rats [4]; Treatment period,2.34 ± 1.44 g/kg body weight
same,Ethanol Preference,"Male Wistar rats [4]; Treatment period, 30 mg/kg",61.06 ± 35.09%
same,Food Consumption,"Male Wistar rats [4]; Treatment period, 30 mg/kg",11.96 ± 3.56 g/day
same,Total Fluid Intake,"Male Wistar rats [4]; Treatment period, 30 mg/kg",3.446 ± 0.394 mL/h/kg
same,Ethanol Preference,Male Wistar rats [4]; [6],slight but insignificant decrease in ethanol preference
same,Food Consumption,Male Wistar rats [4]; [6],significant decrease in food consumption
same,Total Fluid Intake,Male Wistar rats [4]; [6],3.446 mL/h/kg
same,Ethanol Intake,Male Wistar rats [5]; [7],4.86 ± 1.09 g/kg body weight
same,Food Consumption,Male Wistar rats [5]; [7],19.82 ± 1.87 g/day
same,Ethanol Preference,Male Wistar rats [5]; [8],86.16 ± 14.74%
same,Total Fluid Intake,Male Wistar rats [5]; [8],4.9042 ± 0.4583 mL/h/kg
same,Ethanol Preference,Male Wistar rats [5]; [9],86.16%
same,Total Fluid Intake,Male Wistar rats [5]; [9],4.9042 mL/h/kg
same,Ethanol Intake,Male Wistar rats [5]; [10],3.87 ± 1.91 g/kg body weight
same,Ethanol Preference,Male Wistar rats [5]; [10],68.90%
same,Food Consumption,Male Wistar rats [5]; [10],19.86 g/day
same,Total Fluid Intake,Male Wistar rats [5]; [10],4.7558 mL/h/kg
same,Ethanol Intake,Male Wistar rats [5]; [11],2.95 ± 1.59 g/kg body weight
same,Ethanol Preference,Male Wistar rats [5]; [11],69.17 ± 30.25%
same,Food Consumption,Male Wistar rats [5]; [11],14.20 ± 2.76 g/day
same,Total Fluid Intake,Male Wistar rats [5]; [11],3.616 ± 0.5479 mL/h/kg
same,Ethanol Intake,Male Wistar rats [5]; [12],partial effect
same,Ethanol Preference,Male Wistar rats [5]; [12],69.17%
same,Food Consumption,Male Wistar rats [5]; [12],14.20 g/day
same,Total Fluid Intake,Male Wistar rats [5]; [12],3.616 mL/h/kg
same,Food intake lower than baseline level during treatment,"Male Wistar rats [5]; 30 mg/kg i.p. 7 days, Treatment vs baseline",approximately 25%
CN1C(=O)CN=C(c2ccccc2)c2cc(Cl)ccc21 [Diazepam],Ethanol Intake,Male Wistar rats [5]; [13],3.92 ± 1.75 g/kg body weight
same,Ethanol Preference,Male Wistar rats [5]; [13],73.21 ± 26.62%
same,Food Consumption,Male Wistar rats [5]; [13],21.24 ± 1.94 g/day
same,Total Fluid Intake,Male Wistar rats [5]; [13],4.6321 ± 0.4679 mL/h/kg
same,Ethanol Intake,Male Wistar rats [5]; [14],3.95 ± 1.91 g/kg body weight
same,Ethanol Preference,Male Wistar rats [5]; [14],72.15%
same,Food Consumption,Male Wistar rats [5]; [14],20.98 g/day
same,Total Fluid Intake,Male Wistar rats [5]; [14],4.6487 mL/h/kg
same,Ethanol Intake,Male Wistar rats [5]; [15],3.48 ± 1.51 g/kg body weight
same,Ethanol Preference,Male Wistar rats [5]; [15],72.76 ± 28.03%
same,Food Consumption,Male Wistar rats [5]; [15],20.75 ± 2.04 g/day
same,Total Fluid Intake,Male Wistar rats [5]; [15],4.126 ± 0.369 mL/h/kg
same,Ethanol Intake,Male Wistar rats [5]; [16],no effect on ethanol intake; also recorded: no effect to attenuate voluntary ethanol consumption
same,Ethanol Preference,Male Wistar rats [5]; [16],virtually no change
same,Food Consumption,Male Wistar rats [5]; [16],no effect on food intake
same,Total Fluid Intake,Male Wistar rats [5]; [16],does not affect total fluid intake
